# Assay results from patent publication US20030040015A1, “Methods and reagents for identifying compounds and mutations that modulate dopamine beta-hydroxylase activity” (priority 2001, published 2003).
# What was measured:
# NE deficient patients [1] = test: Physiological and pharmacological autonomic function tests in NE deficient patients; assay type: in vivo, human; details: for block of heart rate increase during strain phase (phase II) of the Valsalva maneuver: human, in vivo
# Excerpt: We collected DNA samples from two patients with NE deficiency, and sequenced all exons and exon/intron junctions of their DBH, Phox2a, and Phox2b genes. Resulting novel variants were then examined in the first degree relatives of the NE deficient patients, healthy European-American controls, and in patients with autonomic disorders other than NE deficiency. […] These patients have been previously reported (Robertson D, et al. N Engl J Med; 314:1494, 1986; Biaggioni I, et al. Neurology, 40:370, 1990). The patients were evaluated on the Vanderbilt General Clinical Research Center while in balance on a 150 mEq sodium and 80 mEq potassium diet one week after discontinuation of medications. Both direct and indirect hemodynamic monitoring was carried out and a variety of physiological and pharmacological tests were employed. Catecholamines and their metabolites were analyzed by radioenzymatic and liquid chromatographic methods as described previously (Robertson D, et al. N Engl J Med, 314:1494, 1986; O'Connor D T, et al. Clin Sci, 86:149, 1994).
# CHF patients = details: recent clinical studies; cited from earlier work
# DBH-/- mouse embryos = details: DBH-/- embryos that usually die in utero; Thomas et al.; cited from earlier work
# NE deficient patients [2] = details: Biaggioni et al. Lancet 1987; cited from earlier work
smiles,measurement,setting,value
CN1[C@@H]2CC[C@H]1C[C@@H](OC(=O)C(CO)c1ccccc1)C2 (some centres unmarked) [atropine],block of heart rate increase during strain phase (phase II) of the Valsalva maneuver,NE deficient patients [1],blocked
NCCc1ccc(O)cc1 [tyramine],response to indirectly acting sympathomimetic amine,NE deficient patients [1]; 8 mg IV,absent response
COc1ccccc1OCCNCC(O)COc1cccc2[nH]c3ccccc3c12 (centres unmarked) [carvedilol],mortality and risk of death and hospitalization,CHF patients,reduced mortality and the risk of death and hospitalization
CC(C)NCC(O)c1ccc(O)c(O)c1 (centres unmarked) [isoproterenol],hypersensitivity to the tachycardic effect of the β-adrenoreceptor agonist,NE deficient patients [1]; two NE deficient patients,three-fold hypersensitivity
CC(C)NCC(O)COc1cccc2ccccc12 (centres unmarked) [propranolol],block of heart rate increase during strain phase (phase II) of the Valsalva maneuver,NE deficient patients [1],not
Clc1cccc(Cl)c1N=C1NCCN1 [clonidine],effect on arterial pressure,"NE deficient patients [1]; 0.3 mg po, decrease expected",increase in arterial pressure
CNC[C@H](O)c1cccc(O)c1 [phenylephrine],hypersensitivity to intravenous α1-adrenoreceptor agonist,"NE deficient patients [1]; intravenous, two NE deficient patients",four-fold hypersensitivity
"N[C@H](C(=O)O)[C@H](O)c1ccc(O)c(O)c1 [DOPS, dihydroxyphenylserine]",rescue of homozygous mouse embryos,DBH-/- mouse embryos,rescued homozygous mouse embryos
same,treatment of autonomic and biochemical deficits of NE deficient patients,NE deficient patients [2],successfully treated
COC(=O)[C@@H]1[C@H]2C[C@H]3c4[nH]c5ccccc5c4CCN3C[C@@H]2CC[C@@H]1O [yohimbine],effect on blood pressure,NE deficient patients [1]; 10 mg po,no effect
same,effect on plasma catecholamines,NE deficient patients [1]; 10 mg po,no effect
